The results in this text go back to patent publication US20150018294A1, “MODULATORS OF TOUSLED KINASE IN CELLULAR PROCESSES” (priority 2012, published 2015).

SMILES strings stand for the structures. “Also recorded” adds a separate entry of the source.

For assay [1], the system named is kinase panel (KinomeScan). Kind of assay: KinomeScan kinase panel (DiscoverRx). It counts as binding. The conditions noted are these: significantly inhibited = >60% at 10 μM.
Another assay addresses T1, TLK1B (Homo sapiens, UniProt Q9UKI8).
T1 sequence (Q9UKI8 1-549 isoform Q9UKI8-3): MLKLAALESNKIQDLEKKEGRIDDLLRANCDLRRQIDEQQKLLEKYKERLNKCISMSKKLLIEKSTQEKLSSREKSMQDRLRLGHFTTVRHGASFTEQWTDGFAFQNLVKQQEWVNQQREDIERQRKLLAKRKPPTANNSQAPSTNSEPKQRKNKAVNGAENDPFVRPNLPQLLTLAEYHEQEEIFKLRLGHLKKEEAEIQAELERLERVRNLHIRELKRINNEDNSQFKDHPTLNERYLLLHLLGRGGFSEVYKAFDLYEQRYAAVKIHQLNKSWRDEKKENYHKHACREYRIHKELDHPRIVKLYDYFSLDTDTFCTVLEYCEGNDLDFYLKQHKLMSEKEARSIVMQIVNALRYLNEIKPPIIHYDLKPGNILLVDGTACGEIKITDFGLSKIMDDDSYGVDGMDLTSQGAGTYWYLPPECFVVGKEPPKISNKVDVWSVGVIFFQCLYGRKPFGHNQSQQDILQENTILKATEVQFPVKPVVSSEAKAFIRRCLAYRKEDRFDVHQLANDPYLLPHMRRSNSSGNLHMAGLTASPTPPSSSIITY
The assay can be described thus: TLK1B kinase assay (auto kinase assay with γ 32P ATP; recombinant TLK1B with Rad9 peptide). Format: biochemical. The conditions noted are these: inactive defined at concentrations <10 μM. On the procedure: To identify inhibitors of TLK, we developed a high throughput screen with recombinant TLK1B, a small Rad9 peptide and the ADP Hunter reagent (DiscoveRx). Using this assay, the Innovative North Louisiana Experimental Therapeutics (INLET) screening core (affiliated with the FWCC) screened the Prestwick library, two other proprietary libraries, and a subset of the ChemDiv library (˜6000 compounds).
Following the initial fluorescent screen at a compound concentration of ˜5 μM, potential hits were tested with a more sensitive auto kinase assay with γ 32P ATP. Inhibition of auto phosphorylation was confirmed by TCA precipitable counts (FIG. 1A). The inhibitors are highly specific for TLKs. […] We have additional evidence for direct binding of these compounds to the recombinant protein (to be published elsewhere).
TlK1 immune complexes isolated from […] protein extracts using abtiserum made in our lab and Protein A beads. Adsorbed proteins were washed twice in kinase assay buffer (KAB) (50 mM HEPES pH 7.2, 10 mM MgCl2, 5 mM MnCl2, 2.5 mM EGTA, 1 mM DTT, 1 mM NaF, 0.2 mM sodium o vanadate, […] leupeptin, 2 g/ml aprotinin) and incubated for 15-30 min at 30° C. in KAB supplemented with 10 µM ATP, 10 Ci [−32P]ATP (>5000 Ci/mmol, GE). The proteins were separated on 10% SDS-PAGE gels, transferred to nitrocellulose before exposure on a Phosphorlmager; and then processed for WB with TLK1 antiserum. For kinase assays with recombinant TLK1B protein, the reactions were similar, and carried out with 10 ng TLK1B and 50 ng Rad9 peptide substrate. These were carried out to confirm the initial “hits” from the screen and further to obtain accurate ID50 values for the various inhibitors.

The subject of another assay is panel of cell lines. The assay can be described thus: Doubling in a larger panel of cell lines. It counts as cell-based. The conditions noted are these: inhibitor alone. The source says:
inhibitors had generally similar potency in additive killing with doxo in both DU145 and PC3 (FIG. 6). The RMT potentiation is not limited to these two CaP cell lines, but is also true for MDA MB231 BCA cells (FIG. 6). […] The TLK inhibitors by themselves had little effect on MDA231 viability and doubling (Sup. FIG. 3). […] This is consistent with their proposed mechanism as inhibitors of DSB repair.

For the next assay, the system named is PC 3 (human CaP cells). Kind of assay: IHC analysis of excised PC 3 tumors. The conditions noted are these: mouse, in vivo. More on the design: species or system SCID/bg mice. An excerpt: Some features are immediately noticeable even upon H&E staining that could explain the tumor growth patterns. […] We interpret this as being the result of accumulation of DNA damage, including DSBs, which are not promptly repaired, even as they may be expected to occur spontaneously in many cells in the harsh environment of tumor growth. This has in fact been reported before and was attributed to localized hypoxia 24. […] The staining was not negative, as one may think, since inspection at higher magnification confirmed the expected pattern of exclusively nuclear staining and lower intensity in nucleoli. […] This is consistent with the γH2AX pattern, showing a large number of cells harboring repair foci, and thus likely arrested in replication (or progressing slowly through S phase). To further establish this, we looked at presence of RPA foci, which is indicative of stalled forks25. As expected from the large number of proliferating cells (PCNA positive) in control tumors, RPA1 Staining was very strong, and particularly in focal areas. RPA1 staining in tumors from doxo treated mice was interesting. […] In tumors from mice treated with doxo+THD, staining for RPA was very weak and consistent to that obtained for PCNA. […] However, we did stain for P Rad9 (S328) to confirm that the effects were mediated via TLK inhibition, in what we propose is part of a checkpoint deactivation mechanism following repair of spontaneous DNA damage. Indeed, numerous cells stained lightly for P Rad9 in untreated tumor cells in fact, they are perhaps a larger proportion than those staining for γH2AX that presumably represent cells with unrepaired DSBs.

The subject of another assay is MDA 231-Luc. Kind of assay: MDA 231-Luc xenograft model. Conditions: female SCID/bg mice, treatment groups as in PC 3 study. Format: in vivo. The source says: We used the breast cancer model cell line MDA 231-Luc, for more precise quantitation of tumor growth (photon emission is linear with the tumor cell number). Female SCID/bg mice (N=8 per group) received 1×10^6 cells and when the tumors reached ˜500 mm3 (˜104 photons/sec) they were assigned to four treatment groups, as in the study above (Sup. FIG. 4).

Turning to `CSc1ccc2c(c1)N(CCC1CCCCN1C)c1ccccc1S2` (centres unmarked) [THD, Thioridazine], the “inhibition of other kinases in the panel” value in assay [1] is reported as “no other kinase in the panel was significantly inhibited”. For the same molecule, the “activity on TLK (TLK kinase assays)” value on TLK1B is reported as “active; also recorded: identified as TLK inhibitors”. In the assay with panel of cell lines, the “cell doubling / growth” value was “not found very many cancer cell lines that were sensitive to THD”. In addition, in the assay with PC 3 (human CaP cells), the “P Rad9 (S328) staining” value was “severe suppression of P Rad9”, the PCNA positive cells entry is on record as “significantly fewer PCNA positive cells”, the “cellular density of the tumor (H&E staining)” value was “clearly reduced the tumor density” and the γH2AX positive cells entry is “a large proportion of positive staining cells”. In the assay with MDA 231-Luc, the “tumor growth (photon emission)” value is “effective at controlling tumor increase”.
